Reference: the supplement of paper PMC10307832

Legend:
Test in all cases: relative viability (nuclei count vs DMSO), 5 days (fraction); higher = more cells survive
[1] = compound: CN1CCC(CNc2ccc3ncc(-c4cccc(OC(F)(F)F)c4)n3n2)CC1 [SGI-1776] + N=C(N)NC(=N)NCCc1ccccc1 [Phenformin] (partner 250 µM)
Outline: (§1)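 Lung cancer cell lines in 1536-well plates were dosed by pin tool the day after seeding, either with one drug alone or with a fixed anchor-drug dose plus five library-drug doses (not always all listed) in √10 steps. After 5 days, cells were fixed and their nuclei stained in one step (final 0.05% Triton X-100, 1% formaldehyde, 1 ug/ml Hoechst), then counted on 4× images. Relative viability is the nuclei count in treated wells divided by that in vehicle wells. Values are medians of duplicate plates.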

[2] = compound: CN1CCC(CNc2ccc3ncc(-c4cccc(OC(F)(F)F)c4)n3n2)CC1 [SGI-1776] + Cc1cc(Nc2cc(N3CCN(C)CC3)nc(Sc3ccc(NC(=O)C4CC4)cc3)n2)n[nH]1 [Tozasertib] (partner 0.1 µM)
Outline: as §1

[3] = compound: C1COCCN1C2=NC(=NC3=C2OC4=C3C=CC=N4)C5=CC(=CC=C5)NC(=O)C6=CN=C(C=C6)N + CCNC(=O)c1noc(-c2cc(C(C)C)c(O)cc2O)c1-c1ccc(CN2CCOCC2)cc1 [Luminespib] (partner 0.01 µM)
Outline: as §1

[4] = compound: CN1CCC(CNc2ccc3ncc(-c4cccc(OC(F)(F)F)c4)n3n2)CC1 [SGI-1776] + NC(=O)Nc1cc(-c2cccc(F)c2)sc1C(=O)N[C@H]1CCCNC1 [AZD7762] (partner 0.2 µM)
Outline: as §1

Row | Cell Line | relative viability ([1]; first compound 0.08 µM) | relative viability ([1]; first compound 0.8 µM) | relative viability ([1]; first compound 2.53 µM) | relative viability ([1]; first compound 8 µM) | relative viability ([2]; first compound 0.08 µM) | relative viability ([2]; first compound 0.8 µM) | relative viability ([2]; first compound 2.53 µM) | relative viability ([2]; first compound 8 µM) | relative viability ([3]; first compound 0.02 µM) | relative viability ([3]; first compound 0.06325 µM) | relative viability ([3]; first compound 0.2 µM) | relative viability ([3]; first compound 0.6325 µM) | relative viability ([3]; first compound 2 µM) | relative viability ([4]; first compound 0.08 µM) | relative viability ([4]; first compound 0.8 µM) | relative viability ([4]; first compound 2.53 µM) | relative viability ([4]; first compound 8 µM)
1 | LK-2 | 0.396 | 0.515 | 0.428 | 0.168 | 0.181 | 0.206 | 0.16 | 0.182 | 0.193 | 0.196 | 0.201 | 0.169 | 0.175 | 0.423 | 0.54 | 0.324 | 0.236
2 | LOU-NH91 | 0.754 | 0.733 | 0.716 | 0.565 | 0.711 | 0.594 | 0.459 | 0.341 | 0.309 | 0.389 | 0.346 | 0.315 | 0.306 | 0.797 | 0.793 | 0.7 | 0.593
3 | LU99A | 0.816 | 0.712 | 0.915 | 0.783 | 0.252 | 0.239 | 0.229 | 0.25 | 0.265 | 0.221 | 0.235 | 0.207 | 0.266 | 0.38 | 0.384 | 0.339 | 0.294
4 | LXF-289 | 0.54 | 0.534 | 0.496 | 0.486 | 0.171 | 0.212 | 0.184 | 0.0856 | 0.598 | 0.798 | 0.783 | 0.494 | 0.321 | 1.06 | 1.13 | 1.16 | 1.09
5 | NCI-H23 | 0.77 | 0.702 | 0.752 | 0.72 | 0.367 | 0.295 | 0.282 | 0.205 | 0.185 | 0.203 | 0.191 | 0.208 | 0.212 | 0.252 | 0.278 | 0.281 | 0.235
6 | NCI-H322M | 0.875 | 0.846 | 0.786 | 0.552 | 0.551 | 0.483 | 0.461 | 0.394 | 0.988 | 0.981 | 0.742 | 0.735 | 0.484 | 0.631 | 0.568 | 0.524 | 0.646
7 | NCI-H358 | 0.325 | 0.34 | 0.313 | 0.214 | 0.0986 | 0.0957 | 0.102 | 0.0836 | 0.287 | 0.254 | 0.353 | 0.426 | 0.193 | 0.465 | 0.467 | 0.456 | 0.348
8 | NCI-H441 | 0.759 | 0.769 | 0.82 | 0.663 | 0.604 | 0.437 | 0.216 | 0.297 | 0.284 | 0.314 | 0.324 | 0.501 | 0.25 | 1.25 | 1.2 | 1.07 | 1.13
9 | NCI-H460 | 0.502 | 0.471 | 0.477 | 0.361 | 0.475 | 0.278 | 0.0744 | 0.0448 | 0.0333 | 0.035 | 0.0284 | 0.0243 | 0.0278 | 0.717 | 0.669 | 0.572 | 0.707
10 | NCI-H522 | 0.708 | 0.676 | 0.698 | 0.563 | 0.654 | 0.557 | 0.502 | 0.523 | 0.993 | 1.23 | 1.13 | 0.986 | 0.719 | 0.819 | 0.747 | 0.789 | 0.613
11 | NCI-H596 | 0.724 | 0.688 | 0.701 | 0.704 | 1.07 | 1.04 | 0.792 | 0.577 | 0.985 | 1.04 | 0.968 | 0.992 | 0.408 | 1.17 | 1.15 | 0.984 | 0.897
12 | NCI-H647 | 0.499 | 0.499 | 0.47 | 0.151 | 0.389 | 0.198 | 0.175 | 0.175 | 0.31 | 0.193 | 0.189 | 0.125 | 0.127 | 0.479 | 0.49 | 0.414 | 0.319
13 | NCI-H650 | 0.521 | 0.438 | 0.435 | 0.368 | 0.823 | 0.688 | 0.373 | 0.185 | 0.873 | 0.756 | 0.788 | 0.783 | 0.698 | 1.21 | 0.941 | 0.994 | 1.17
14 | NCI-H727 | 0.525 | 0.577 | 0.552 | 0.498 | 0.669 | 0.598 | 0.536 | 0.472 | 0.482 | 0.317 | 0.323 | 0.335 | 0.346 | 0.696 | 0.739 | 0.807 | 0.583
15 | NCI-H838 | 0.622 | 0.633 | 0.52 | 0.335 | 0.262 | 0.265 | 0.195 | 0.213 | 0.338 | 0.279 | 0.264 | 0.303 | 0.227 | 0.944 | 0.961 | 0.932 | 0.916
16 | NCI-H1355 | 0.451 | 0.423 | 0.401 | 0.3 | 0.591 | 0.408 | 0.305 | 0.217 | 0.708 | 0.741 | 0.7 | 0.58 | 0.693 | 0.782 | 0.772 | 0.657 | 0.642
17 | NCI-H1395 | 0.464 | 0.434 | 0.46 | 0.413 | 0.83 | 0.817 | 0.644 | 0.39 | 0.666 | 0.555 | 0.789 | 0.658 | 0.482 | 0.424 | 0.432 | 0.393 | 0.402
